Structures can show the parent of a compound that is named as a salt.
Columns and labels:
Assay type in all cases: cell-based
Settings in all cases: ratio to NECA
[1] = molecular target: T1, adenosine 3 receptor (Homo sapiens, UniProt P0DMS8); experiment: Agonist activity, CHO cells transfected with human adenosine receptor and CRE-SPAP reporter; forskolin-enhanced cAMP (A3)
T1 construct: expressed in transfected cells; host or cells: CHO cells
T1 sequence (P0DMS8 1-318): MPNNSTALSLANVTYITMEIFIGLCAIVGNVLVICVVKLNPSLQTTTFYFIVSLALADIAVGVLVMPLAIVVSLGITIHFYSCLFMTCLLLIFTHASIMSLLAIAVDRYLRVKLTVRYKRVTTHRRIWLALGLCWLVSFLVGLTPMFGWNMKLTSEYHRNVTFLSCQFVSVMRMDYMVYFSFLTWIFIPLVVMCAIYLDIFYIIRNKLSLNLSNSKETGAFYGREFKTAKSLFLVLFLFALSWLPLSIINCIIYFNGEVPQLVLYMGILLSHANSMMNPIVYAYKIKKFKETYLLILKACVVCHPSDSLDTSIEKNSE
Description: (§1) (1) Agonist activity against adenosine 2a, adenosine 1 and adenosine 3 receptor subtypes.
(§2) Agonist selectivity of compounds against other human adenosine receptors is determined using Chinese hamster ovary (CHO) cells transfected with the gene for the relevant human adenosine receptor following a method based on that of Castanon and Spevak, 1994. The CHO cells are also transfected with cyclic AMP response elements promoting the gene for secreted placental alkaline phosphatase (SPAP) (Wood, 1995). The effect of test compounds may be determined by their effects on basal levels of CAMP (A2a) or on forskolin-enhanced cAMP (A1 and A3) as reflected by changes in levels of SPAP. EC50 values for compounds may then be determined as a ratio to that of the non-selective agonist N-ethyl carboxamide adenosine (NECA).

[2] = molecular target: T2, adenosine 1 receptor (Homo sapiens, UniProt P30542); experiment: Agonist activity, CHO cells transfected with human adenosine receptor and CRE-SPAP reporter; forskolin-enhanced cAMP (A1)
T2 construct: expressed in transfected cells; host or cells: CHO cells
T2 sequence (P30542 1-326): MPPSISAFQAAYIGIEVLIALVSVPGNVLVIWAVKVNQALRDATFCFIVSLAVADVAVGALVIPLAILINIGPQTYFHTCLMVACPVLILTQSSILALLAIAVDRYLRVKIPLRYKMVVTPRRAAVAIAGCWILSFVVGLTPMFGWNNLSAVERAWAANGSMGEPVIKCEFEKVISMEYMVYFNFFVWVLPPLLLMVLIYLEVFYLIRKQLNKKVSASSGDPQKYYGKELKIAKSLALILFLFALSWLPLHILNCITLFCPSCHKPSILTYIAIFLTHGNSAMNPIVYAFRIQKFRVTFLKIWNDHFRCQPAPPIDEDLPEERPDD
Description: as §1, §2

[3] = molecular target: T3, adenosine 2a receptor (Homo sapiens, UniProt P29274); experiment: Agonist activity, CHO cells transfected with human adenosine receptor and CRE-SPAP reporter; basal cAMP (A2a)
T3 construct: expressed in transfected cells; host or cells: CHO cells
Description: as §1, §2

[4] = * data are minimum values since preparation was found, after testing, to contain an inactive impurity
[5] = ** data on retested purified compound

T3 sequence (P29274 whole entry): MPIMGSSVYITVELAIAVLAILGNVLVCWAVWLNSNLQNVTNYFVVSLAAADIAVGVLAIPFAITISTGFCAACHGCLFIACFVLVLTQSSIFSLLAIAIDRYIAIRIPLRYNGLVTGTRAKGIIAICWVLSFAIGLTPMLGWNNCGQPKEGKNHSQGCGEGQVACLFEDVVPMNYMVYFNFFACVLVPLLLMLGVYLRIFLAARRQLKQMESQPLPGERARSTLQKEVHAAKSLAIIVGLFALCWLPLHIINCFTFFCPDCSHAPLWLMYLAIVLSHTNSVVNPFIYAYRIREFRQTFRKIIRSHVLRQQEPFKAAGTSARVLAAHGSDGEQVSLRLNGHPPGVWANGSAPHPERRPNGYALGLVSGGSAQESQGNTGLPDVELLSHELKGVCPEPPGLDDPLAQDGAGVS

Structure (SMILES) | A3, EC50 as a ratio of that of NECA ([1]; CHO cells, SPAP readout) | A1, EC50 as a ratio of that of NECA ([2]; CHO cells, SPAP readout) | A2a, EC50 as a ratio of that of NECA ([3]; CHO cells, SPAP readout) | A3, EC50 as a ratio of that of NECA [1, 4] | A1, EC50 as a ratio of that of NECA [2, 4] | A2a, EC50 as a ratio of that of NECA [3, 4] | A3, EC50 as a ratio of that of NECA [1, 5] | A1, EC50 as a ratio of that of NECA [2, 5] | A2a, EC50 as a ratio of that of NECA [3, 5]
Cc1noc([C@H]2O[C@@H](n3cnc4c(NCC(c5ccccc5)c5ccccc5)nc(NCCc5cn(C)cn5)nc43)[C@H](O)[C@@H]2O)n1.O=C(O)C(F)(F)F.O=C(O)C(F)(F)F [Example 1] | >197 | 1306 | 1.19 |  |  |  |  |  | 
CCc1noc([C@H]2O[C@@H](n3cnc4c(NCC(c5ccccc5)c5ccccc5)nc(NCCc5cn(C)cn5)nc43)[C@H](O)[C@@H]2O)n1.O=C(O)C(F)F.O=C(O)C(F)F [Example 2] | >197 | 1823 | 0.64 |  |  |  |  |  | 
CCc1noc(C2OC(n3cnc4c(NCC(c5ccccc5)c5ccccc5)nc(NC5CCNC5)nc43)C(O)C2O)n1 [Example 3, (2R,3R,4S,5S)-2-[6-(2,2-Diphenyl-ethylamino)-2-(pyrrolidin-3R-ylamino)-purin-9-yl]-5-(3-ethyl-[1,2,4]oxadiazol-5-yl)-tetrahydro-furan-3,4-diol formate] |  |  |  | >304 | 6719 | 4.63 |  |  | 
CCc1noc(C2OC(n3cnc4c(NCC(c5ccccc5)c5ccccc5)nc(NC5CCC(N)CC5)nc43)C(O)C2O)n1.O=CO.O=CO [Example 4, (2R,3R,4S,5S)-2-[2-(trans-4-Amino-cyclohexylamino)-6-(2,2-diphenyl-ethylamino)-purin-9-yl]-5-(3-ethyl-[1,2,4]oxadiazol-5-yl)-tetrahydro-furan-3,4-diol diformate] | >383 | >=3996 | 5.37 |  |  |  |  |  | 
CCc1noc(C2OC(n3cnc4c(NCC(c5ccccc5)c5ccccc5)nc(NC(CO)C(C)C)nc43)C(O)C2O)n1 [Example 5, (2R,3R,4S,5S)-2-[6-(2,2-Diphenyl-ethylamino)-2-(1S-hydroxymethyl-2-methyl-propylamino)-purin-9-yl]-5-(3-ethyl-[1,2,4]oxadiazol-5-yl)-tetrahydro-furan-3,4-diol formate] | >309 | 1391.2 | 6.12 |  |  |  |  |  | 
CCC(CC)Nc1nc(NCCN2CCOCC2)nc2c1ncn2[C@@H]1O[C@H](c2nc(C)no2)[C@@H](O)[C@H]1O.O=CO [Example 6, (2R,3R,4S,5S)-2-[6-(1-Ethyl-propylamino)-2-(2-morpholin-4-yl-ethylamino)-purin-9-yl]-5-(3-methyl-[1,2,4]oxadiazol-5-yl)-tetrahydro-furan-3,4-diol formate] |  |  |  | >642 | >4833 | 41.35 |  |  | 
Cc1noc([C@H]2O[C@@H](n3cnc4c(N)nc(NCCc5cn(C)cn5)nc43)[C@H](O)[C@@H]2O)n1.O=C(O)C(F)(F)F.O=C(O)C(F)(F)F [Example 7] |  |  |  | >117 | 1013.4 | 11.02 |  |  | 
CCc1noc(C2OC(n3cnc4c(N)nc(NCCc5ccccn5)nc43)C(O)C2O)n1.O=CO.O=CO (stereo not drawn) [Example 8] |  |  |  | >215 | >=3865 | 14.05 |  |  | 
CCc1noc(C2OC(n3cnc4c(N)nc(NC(CO)Cc5ccccc5)nc43)C(O)C2O)n1 [Example 9, (2R,3R,4S,5S)-2-[6-Amino-2-(1S-hydroxymethyl-2-phenyl-ethylamino)-purin-9-yl]-5-(3-ethyl-[1,2,4oxadiazol-5-yl)-tetrahydro-furan-3,4-diol formate] |  |  |  | >231 | 1692.4 | 0.81 | >287 | 3006 | 0.086
CCc1noc(C2OC(n3cnc4c(N)nc(NCCc5cn(C)cn5)nc43)C(O)C2O)n1 [Example 10, (2R,3R,4S,5S)-2-{6-Amino-2-[2-(1-methyl-1H-imidazol-4-yl)-ethylamino]-purin-9-yl}-5-(3-ethyl-1,2,4]oxadiazol-5-yl)-tetrahydro-furan-3,4-diol diformate] |  |  |  | >269 | 3449.6 | 7.66 |  |  | 
Cc1noc([C@H]2O[C@@H](n3cnc4c(N)nc(NC5CCCC5)nc43)[C@H](O)[C@@H]2O)n1.O=CO [Example 11, (2R,3R,4S,5S)-2-(6-Amino-2-cyclopentylamino-purin-9-yl)-5-(3-methyl-[1,2,4]oxadiazol-5-yl)-tetrahydro-furan-3,4-diol formate] |  |  |  | >266 | 145.5 | 6.66 |  |  | 
Cc1noc(C2OC(n3cnc4c(N)nc(NC(CO)Cc5ccccc5)nc43)C(O)C2O)n1 [Example 12, (2R,3R,4S,5S)-2-[6-Amino-2-(1S-hydroxymethyl-2-phenyl-ethylamino)-purin-9-yl]-5-(3-methyl-[1,2,4]oxadiazol-5-yl)-tetrahydro-furan-3,4-diol formate] |  |  |  | >302 | 1863.5 | 4.54 |  |  | 
CCc1noc([C@H]2O[C@@H](n3cnc4c(NC(CC)CC)nc(NCCc5cn(C)cn5)nc43)[C@H](O)[C@@H]2O)n1.O=CO [Example 13, (2S,3S,4R,5R)-2-(3-Ethyl-[1,2,4]oxadiazol-5-yl)-5-(6-(1-ethyl-propylamino)-2-[2-(1-methyl-1H-imidazol-4-yl)-ethylamino]-purin-9-yl}tetrahydro-furan-3,4-diol formate] | >289 | >=4370 | 0.61 |  |  |  |  |  | 
CCC(CC)Nc1nc(NCCc2cn(C)cn2)nc2c1ncn2[C@@H]1O[C@H](c2nc(C)no2)[C@@H](O)[C@H]1O.O=CO [Example 14, (2R,3R,4S,5S)-2-{6-(1-Ethyl-propylamino)-2-[2-(1-methyl-1H-imidazol-4-yl)-ethylamino]-purin-9-yl}-5-(3-methyl-[1,2,4]oxadiazol-5-yl)-tetrahydro-furan-3,4-diol formate] | >239 | >4587 | 0.66 |  |  |  |  |  | 
Cc1noc([C@H]2O[C@@H](n3cnc4c(N)nc(NCCc5ccccc5)nc43)[C@H](O)[C@@H]2O)n1.O=C(O)C(F)(F)F [Example 15, (2R,3R,4S,5S)-2-(6-Amino-2-phenethylamino-purin-9-yl)-5-(3-methyl-[1,2,4]oxadiazol-5-yl)-tetrahydro-furan-3,4-diol trifluoroacetate] | >130 | >5511 | 2.29 |  |  |  |  |  | 
CCC(CC)Nc1nc(N[C@H]2CC[C@H](N)CC2)nc2c1ncn2[C@@H]1O[C@H](c2nc(C)no2)[C@@H](O)[C@H]1O.O=CO [Example 16, (2R,3R,4S,5S)-2-[2-(trans-4-Amino-cyclohexylamino)-6-(1-ethyl-propylamino)-purin-9-yl]-5-(3-methyl-[1,2,4]oxadiazol-5-yl)tetrahydro-furan-3,4-diol formate] |  |  |  | >362 | >6244 | 11.87 |  |  | 
CCC(CC)Nc1nc(NC(CO)Cc2ccccc2)nc2c1ncn2C1OC(c2nc(C)no2)C(O)C1O [Example 17, (2R,3R,4S,5S)-2-[6-(1-Ethyl-propylamino)-2-(1S-hydroxymethyl-2-phenl-ethylamino)-purin-9-yl]-5-(3-methyl-[1,2,4]oxadiazol-5-yl)-tetrahydro-furan-3,4-diol formate] |  |  |  | >362 | >6244 | 3.97 |  |  | 
CCC(CC)Nc1nc(NCCN2CCCCC2)nc2c1ncn2[C@@H]1O[C@H](c2nc(C)no2)[C@@H](O)[C@H]1O.O=CO [Example 18, (2R,3R,4S,5S)-2-[6-(1-Ethyl-propylamino)-2-(2-piperidin-1-yl-ethylamino)-purin-9-yl]-5-(3-methyl-[1,2,4]oxadiazol-5-yl)-tetrahydro-furan-3,4-diol formate] |  |  |  | >314 | >6244 | 8.16 |  |  | 
